In patent US5491169A, “Amino acid derivatives and their therapeutical applications” (priority 1989, dated 1996):

Columns and labels:
[1] = molecular target: T1, purified rabbit kidney neutral endopeptidase (Oryctolagus cuniculus, UniProt P08049); experiment: In vitro inhibitory potency against neutral endopeptidase; format: biochemical; details: purified rabbit kidney enzyme, (3H)-D-Ala2-Leu5-enkephalin, 25° C., pH 7.4, DTT 100 equivalents
T1 construct: from tissue; host or cells: rabbit kidney (purified enzyme)
T1 sequence (P08049 1-750): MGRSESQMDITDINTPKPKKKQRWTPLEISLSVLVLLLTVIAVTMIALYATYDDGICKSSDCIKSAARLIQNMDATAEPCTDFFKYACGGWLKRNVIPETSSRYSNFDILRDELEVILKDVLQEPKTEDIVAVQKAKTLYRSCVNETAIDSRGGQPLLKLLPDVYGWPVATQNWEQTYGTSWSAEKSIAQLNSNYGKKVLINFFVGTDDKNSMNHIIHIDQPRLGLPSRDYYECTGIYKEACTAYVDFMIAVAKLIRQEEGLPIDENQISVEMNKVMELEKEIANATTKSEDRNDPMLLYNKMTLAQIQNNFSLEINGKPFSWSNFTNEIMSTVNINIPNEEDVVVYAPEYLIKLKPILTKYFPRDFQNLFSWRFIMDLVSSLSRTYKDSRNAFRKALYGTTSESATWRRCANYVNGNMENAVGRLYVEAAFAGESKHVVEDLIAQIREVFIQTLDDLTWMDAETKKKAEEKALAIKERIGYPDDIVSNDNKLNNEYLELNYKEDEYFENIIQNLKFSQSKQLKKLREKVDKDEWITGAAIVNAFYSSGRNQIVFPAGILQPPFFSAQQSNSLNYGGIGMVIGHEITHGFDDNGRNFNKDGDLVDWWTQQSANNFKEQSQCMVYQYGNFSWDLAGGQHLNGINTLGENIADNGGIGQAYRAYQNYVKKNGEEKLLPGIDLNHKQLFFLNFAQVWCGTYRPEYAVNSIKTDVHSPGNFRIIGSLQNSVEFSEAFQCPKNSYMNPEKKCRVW
Experimental: (§1) The biological activity relates to the inhibition of purified aminopeptidase N and of purified neutral endopeptidase.
(§2) 1) In vitro inhibition of enkephalinase activities.
a) Inhibitory potency against neutral endopeptidase
The inhibitory power is determined on purified rabbit kidney neutral endopeptidase following the protocol described in the literature (Blumberg et al. Life Sci. (1981) 28, 301). After a preincubation for 15 minutes at 25° C., an aliquot of proteins is incubated for 20 minutes at 25° C. in the presence of 20 nmol of (^3 H)-D-Ala^2 -Leu^5 -enkephalin and the test compound in solution in Tris-HCl buffer (pH 7.4) in the presence of dithiothreitol DTT (100 equivalents relative to the inhibitor). The reaction is stopped by adding 0.2 N HCl. The tritiated metabolite (^3 H)-Tyr-D-Ala-Gly is separated from the D-Ala^2 -Leu^5 -enkephalin by chromatography on a Porapak column, and the quantity formed measured using a liquid scintillation counter.
The activity of the different compounds is expressed as 50% inhibitory concentrations (IC50), and the results are summarized in Table II.

[2] = molecular target: T2, purified porcine kidney aminopeptidase N (Sus scrofa, UniProt P15145); experiment: In vitro inhibitory potency against aminopeptidase N; format: biochemical; details: purified porcine kidney enzyme, (3H)-Leu5-enkephalin, DTT
T2 construct: purchased Boehringer, France; host or cells: porcine kidney
T2 sequence (P15145 1-963): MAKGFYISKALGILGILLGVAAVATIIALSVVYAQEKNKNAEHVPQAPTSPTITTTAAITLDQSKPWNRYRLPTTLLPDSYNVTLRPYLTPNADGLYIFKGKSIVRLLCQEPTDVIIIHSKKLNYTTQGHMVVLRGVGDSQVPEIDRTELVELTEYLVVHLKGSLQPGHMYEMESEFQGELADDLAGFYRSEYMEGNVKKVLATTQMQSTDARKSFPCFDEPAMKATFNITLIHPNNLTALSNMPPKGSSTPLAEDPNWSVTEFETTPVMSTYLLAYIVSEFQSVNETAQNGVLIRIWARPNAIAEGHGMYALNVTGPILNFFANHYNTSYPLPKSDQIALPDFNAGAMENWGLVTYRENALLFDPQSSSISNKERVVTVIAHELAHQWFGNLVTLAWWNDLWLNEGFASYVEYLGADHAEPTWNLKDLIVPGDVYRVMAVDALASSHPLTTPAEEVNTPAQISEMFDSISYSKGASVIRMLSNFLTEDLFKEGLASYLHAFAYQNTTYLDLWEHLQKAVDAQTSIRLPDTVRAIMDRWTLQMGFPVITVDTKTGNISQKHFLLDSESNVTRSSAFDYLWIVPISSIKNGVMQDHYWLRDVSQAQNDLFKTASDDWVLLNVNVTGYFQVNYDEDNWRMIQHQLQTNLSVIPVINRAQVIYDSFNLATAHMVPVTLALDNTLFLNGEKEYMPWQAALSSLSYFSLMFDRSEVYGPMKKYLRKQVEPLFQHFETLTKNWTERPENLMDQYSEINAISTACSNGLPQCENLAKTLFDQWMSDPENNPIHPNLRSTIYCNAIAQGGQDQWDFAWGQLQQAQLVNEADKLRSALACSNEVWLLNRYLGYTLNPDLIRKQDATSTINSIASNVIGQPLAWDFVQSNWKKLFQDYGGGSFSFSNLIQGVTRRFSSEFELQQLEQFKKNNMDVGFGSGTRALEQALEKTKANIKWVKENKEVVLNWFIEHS
Experimental: as §1, §2
b) Inhibitory potency against aminopeptidase N
The inhibitory power is measured on purified porcine kidney aminopeptidase (Boehringer, France). The assay is performed in a manner identical to the above, using (^3 H)-Leu^5 -enkephalin as a substrate. The metabolite formed, (^3 H)-Tyr, is separated by chromatography on a Porapak column, and the quantity formed measured using a liquid scintillation counter.

cerebral NEP = experiment: In vivo inhibition of cerebral NEP; details: mice, i.v.
Experimental: 2) "In vivo" inhibition of cerebral NEP
The enzymatic activity of cerebral NEP is compared in mice untreated or treated with a given dose of compound (approximately 2.5 mg/kg injected intravenously. The animals are sacrificed at variable times after injection of the inhibitor, and the NEP activity is determined in the brain by measuring the degradation of (^3 H)-D-Ala^2 -Leu^5 -enkephalin.
For the final compound of Example 1, injected at a dose of 2.7 μmol/kg (47.6 μg in 100 μl), the following results are obtained: […]

Hot plate test, i.v. = format: in vivo; details: Mus musculus, iv, mice, hot plate 55° C., Table III 50% analgesia
Experimental: (§3) 1) Hot .plate test: This involves the licking and jumping reflex of the mouse on a plate heated to 55° C., according to the method of Jacob et al (Arch Int. Pharmacodyn. 122 287, 1959; 1961).
1.1. Administered i.v. (100 μl in tail vein) in mice, the compounds tested display a characteristic effect both on the latency time of jumping and on latency time of licking. These effects are antagonized by naloxone (0.5 mg/kg s.c.).
The results are expressed in Table III as a % analgesia. The percentage analgesia is expressed for each dose of compound tested by the following formula: [formula]

Hot plate test, i.p. = format: in vivo; details: mice
Experimental: as §3
1.2 Administered i.p. in mice, the test compounds display a characteristic effect on the times of restraint of jumping and of licking. These effects are antagonized by naloxone (0.5 mg/kg).

[3] = Test on abdominal cramps induced by phenylbenzoquinone, i.v.; format: in vivo
Experimental: 2) Test on abdominal cramps
(Hendershot and Forsaith. J. Pharmacol. (1975), 125, 237): This test measures the number of cramps induced by i.p. injection of 100 μl of a 0.02% solution of phenylbenzoquinone. The number of cramps is counted during 10 minutes, 10 minutes after the injection. Administered i.v., the compounds decrease the number of cramps.

[4] = Tail flick test (withdrawal of the tail), i.v.; format: in vivo; details: rats, 10 mg/kg
Experimental: 3) Test of withdrawal of the tail in rats: (tail flick test): administered i.v. in rats, the compounds according to the invention produce a significant extension of the time of withdrawal of the tail. These effects are antagonized by naloxone (0.5 mg/kg s.c.).
The results are expressed as a % analgesia for the same dose (10 mg/kg) of all the compounds tested.

[5] = Tolerance after long-term administration, mice (% analgesia); format: in vivo; details: mouse, s.c. four times per 24 h, compound 8 5 mg/kg, morphine 0.5 mg/kg
Experimental: (§4) e) Study of the tolerance and addiction effects induced by long-term administration of the compound of Example 8:
(§5) 1) The compound 8 is administered s.c. four times per 24 hours at a dose of 5 mg/kg for 6 days to mice and at 10 mg/kg to rats.
(§6) Morphine (hydrochloride) is administered under the same conditions (0.5 mg/kg in mice, 2 mg/kg in rats). The control animals receive only the vehicle.

[6] = Tolerance after long-term administration, rats (% analgesia); format: in vivo; details: rat, s.c. four times per 24 h, compound 8 10 mg/kg, morphine 2 mg/kg, compound 7 dose not given
Experimental: as §4, §5, §6

| SMILES | IC50 [1] [nM] | IC50 [2] [nM] | ED50 (Hot plate test, i.v.) [mg/kg] | further results |
| --- | --- | --- | --- | --- |
| CC(C)CC(N)CSSCC(Cc1ccccc1)C(=O)NCC(=O)OCc1ccccc1 (stereo not shown) [Example 1] | 2 | 5 | 4 | % inhibition cerebral NEP (cerebral NEP; 2.7 μmol/kg (Example 7: same conditions), 60'): 68 ± 4%; % inhibition cerebral NEP (cerebral NEP; 2.7 μmol/kg (Example 7: same conditions), 120'): 63 ± 2%; % inhibition cerebral NEP (cerebral NEP; 2.7 μmol/kg (Example 7: same conditions), 180'): 42 ± 16%; % inhibition cerebral NEP (cerebral NEP; 2.7 μmol/kg, 15' (n = 4)): 96 ± 9%; dose in i.p. hot plate table (Hot plate test, i.p.): 10 mg/kg; % analgesia (abdominal cramps) ([3]; 1 mg/kg): 24.6% ± 8; % analgesia (abdominal cramps) ([3]; 3 mg/kg): 46.9% ± 7.9; % analgesia (abdominal cramps) ([3]; 9 mg/kg): 73.9% ± 8.2; % analgesia (tail flick) [4]: 20% |
| CC(C)CC(N)CSSCC(Cc1ccccc1)C(=O)NC(C)C(=O)OCc1ccccc1 (stereo not shown) [Example 2] | 2.5 | 5 |  |  |
| CC(C)CC(N)CSSCC(Cc1ccccc1)C(=O)NC(Cc1ccccc1)C(=O)OCc1ccccc1 (stereo not shown) [Example 3] | 1.2 | 5 |  |  |
| NC(CSSCC(Cc1ccccc1)C(=O)NCC(=O)OCc1ccccc1)Cc1ccccc1 (stereo not shown) [Example 4] | 2 | 8 |  |  |
| CSCCC(N)CSSCC(Cc1ccccc1)C(=O)NC(C)C(=O)OCc1ccccc1 (stereo not shown) [Example 6] | 1.2 | 2 |  |  |
| CC(NC(=O)C(CC[S+](C)[O-])CSSCC(N)CC[S+](C)[O-])C(=O)OCc1ccccc1 (stereo not shown) [Example 22] | 7 | 2 | 4.5 | dose in i.p. hot plate table (Hot plate test, i.p.): 6 mg/kg |
| C[S+]([O-])CCC(N)CSSCC(Cc1ccccc1)C(=O)NC1CCCCC1C(=O)OCc1ccccc1 (stereo not shown) [Example 26] | 5 | 2 | 8 |  |
| C[S+]([O-])CCC(N)CSSCC(CC[S+](C)[O-])C(=O)NC(CC(=O)OCc1ccccc1)c1ccccc1 (stereo not shown) [Example 28] | 3 | 2 | 4 |  |
| C[S+]([O-])CCC(N)CSSCC(CC[S+](C)[O-])C(=O)NC1CCCCC1C(=O)OCc1ccccc1 (stereo not shown) [Example 32] | 4 | 2 | 2 | dose in i.p. hot plate table (Hot plate test, i.p.): 5.5 mg/kg; % analgesia (tail flick) [4]: 36% |
| CC(C)CC(CSSCC(N)CC[S+](C)[O-])C(=O)NN1CCOCC1 (stereo not shown) [Example 33] | 5 | 2 |  |  |
| CN1CC[C@]23c4c5ccc(O)c4O[C@H]2[C@@H](O)C=C[C@H]3[C@H]1C5 [morphine, reference compound] |  |  |  | % analgesia relative to the controls ([5]; day 0): 100 ± 10%; % analgesia relative to the controls ([5]; day 1): 60 ± 10%; % analgesia relative to the controls ([5]; day 6): 0%; % analgesia relative to the controls ([6]; day 0): 70 ± 12%; % analgesia relative to the controls ([6]; day 1): 20 ± 3%; % analgesia relative to the controls ([6]; day 6): 0% |
